Target: P. falciparum apicoplast DNA polymerase (Pf-apPOL) (Plasmodium falciparum, UniProt Q8ILY1)
Assay: Fluorescence-based high-throughput DNA polymerase assay (molecular beacon), primary screen and dose-response;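 as to % inhibition ApPOL 90': test concentration in µM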;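 as to % inhibition apPOL 180': test concentration in µM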
Type: biochemical
How it was run: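 Single-point screening used 10 µM compound with 20 nM polymerase, 20 nM hairpin substrate and 6 µM dNTPs for 90 min at 25 °C. Confirmatory titrations (2.5–80 µM) followed fluorescence at three times, and IC50 was derived from a fit including a cooperativity term n.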

[1] = DRC-2, 90', concentration 20 (unit not given)
[2] = primary screen value of the 186 hits; unit not given; 90 min, 10 µM
[3] = primary screen value, head "DNA Pol", unit not given; 90 min, 10 µM

Chain of P. falciparum apicoplast DNA polymerase (Pf-apPOL) (Q8ILY1 entry or part of it): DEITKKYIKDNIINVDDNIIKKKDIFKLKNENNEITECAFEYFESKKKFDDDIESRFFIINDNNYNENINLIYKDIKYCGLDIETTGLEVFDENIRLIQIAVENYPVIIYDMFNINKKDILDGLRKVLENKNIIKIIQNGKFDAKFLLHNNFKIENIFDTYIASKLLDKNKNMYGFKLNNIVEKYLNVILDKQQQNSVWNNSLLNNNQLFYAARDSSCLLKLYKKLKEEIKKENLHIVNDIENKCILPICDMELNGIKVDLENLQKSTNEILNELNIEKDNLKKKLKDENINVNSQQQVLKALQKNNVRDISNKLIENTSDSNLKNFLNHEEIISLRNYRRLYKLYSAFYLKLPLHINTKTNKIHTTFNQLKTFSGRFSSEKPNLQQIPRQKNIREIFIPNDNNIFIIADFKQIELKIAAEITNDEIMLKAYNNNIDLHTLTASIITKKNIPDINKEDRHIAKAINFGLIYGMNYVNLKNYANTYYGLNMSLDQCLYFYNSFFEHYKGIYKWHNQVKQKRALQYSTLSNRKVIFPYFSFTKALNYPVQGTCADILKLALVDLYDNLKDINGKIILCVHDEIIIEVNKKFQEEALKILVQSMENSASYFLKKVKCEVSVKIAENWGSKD

CO/N=C(\C(=O)N[C@@H]1C(=O)N2C(C(=O)[O-])=C(CSc3nc(=O)c([O-])nn3C)CSC12)c1csc(N)n1.[Na+].[Na+] (stereo partly shown) [Molecule 83, CO/N=C(/c1csc(n1)N)\C(=O)N[C@@H]1C(=O)N2C1SCC(=C2C(=O)[O-])CSc1nc(=O)c(nn1C)[O-].[Na+].[Na+]]
DNA Pol (186 hits, value of the hit list (primary screen); unit not given; 90 min, 10 µM): 48 | % inhibition Apo pol 10' (DRC-1; 10'; concentration 2.5): 18.7657% | % inhibition Apo pol 10' (DRC-1; 10'; concentration 5): 26.0446% | % inhibition Apo pol 10' (DRC-1; 10'; concentration 10): 38.6298% | % inhibition Apo pol 10' (DRC-1; 10'; concentration 20): 50.9335% | % inhibition Apo pol 10' (DRC-1; 10'; concentration 40): 64.2256% | % inhibition Apo pol 10' (DRC-1; 10'; concentration 80): 74.1492% | % inhibition Apol 90' (DRC-1; 90'; concentration 2.5): -5.899% | % inhibition Apol 90' (DRC-1; 90'; concentration 5): -4.018% | % inhibition Apol 90' (DRC-1; 90'; concentration 10): 2.565% | % inhibition Apol 90' (DRC-1; 90'; concentration 20): 10.9979% | % inhibition Apol 90' (DRC-1; 90'; concentration 40): 25.6327% | % inhibition Apol 90' (DRC-1; 90'; concentration 80): 43.9979% | % inhibition apPOL 180' (DRC-1; 180'; concentration 2.5): -15.6799% | % inhibition apPOL 180' (DRC-1; 180'; concentration 5): -16.0147% | % inhibition apPOL 180' (DRC-1; 180'; concentration 10): -9.688% | % inhibition apPOL 180' (DRC-1; 180'; concentration 20): -2.55% | % inhibition apPOL 180' (DRC-1; 180'; concentration 40): 10.5527% | % inhibition apPOL 180' (DRC-1; 180'; concentration 80): 28.4912% | % inhibition Apo pol 5' (DRC-2, 5', concentration 2.5): 1.37% | % inhibition Apo pol 5' (DRC-2, 5', concentration 5): 6% | % inhibition Apo pol 5' (DRC-2, 5', concentration 10): 18% | % inhibition Apo pol 5' (DRC-2, 5', concentration 20): 30% | % inhibition Apo pol 5' (DRC-2, 5', concentration 40): 42% | % inhibition Apo pol 5' (DRC-2, 5', concentration 80): 54% | % inhibition Apol 40' (DRC-2, 40', concentration 2.5): -6% | % inhibition Apol 40' (DRC-2, 40', concentration 5): -1.68% | % inhibition Apol 40' (DRC-2, 40', concentration 10): 9% | % inhibition Apol 40' (DRC-2, 40', concentration 20): 20% | % inhibition Apol 40' (DRC-2, 40', concentration 40): 37% | % inhibition Apol 40' (DRC-2, 40', concentration 80): 59% | % inhibition ApPOL 90' (DRC-2, 90', concentration 2.5): -8% | % inhibition ApPOL 90' (DRC-2, 90', concentration 5): -7% | % inhibition ApPOL 90' (DRC-2, 90', concentration 10): 1.87% | % inhibition ApPOL 90' (DRC-2, 90', concentration 20): 12% | % inhibition ApPOL 90' (DRC-2, 90', concentration 40): 30% | % inhibition ApPOL 90' (DRC-2, 90', concentration 80): 56% | % inhibition apPOL 180' (DRC-2, 180', concentration 2.5): -10% | % inhibition apPOL 180' (DRC-2, 180', concentration 5): -12% | % inhibition apPOL 180' (DRC-2, 180', concentration 10): -7% | % inhibition apPOL 180' (DRC-2, 180', concentration 20): 5% | % inhibition apPOL 180' (DRC-2, 180', concentration 40): 21% | % inhibition apPOL 180' (DRC-2, 180', concentration 80): 48% | % inhibition Apo pol 5' (DRC-2; 5'; concentration 20): 30% | % inhibition ApPOL 90' (DRC-2; 90'; concentration 5): -7% | % inhibition ApPOL 90' (DRC-2; 90'; concentration 40): 30% | % inhibition apPOL 180' (DRC-2; 180'; concentration 10): -7% | DNA Pol (primary screen value, 'DNA Pol' only; 90 min, 10 µM): 48

Oc1cccc2ccc(/C=C/c3ccc4c(c3)OCO4)nc12 [KU0025984]
% inhibition Apo pol 10' (DRC-1; 10'; concentration 2.5): -0.2183% | % inhibition Apo pol 10' (DRC-1; 10'; concentration 5): 11.208% | % inhibition Apo pol 10' (DRC-1; 10'; concentration 10): 38.8453% | % inhibition Apo pol 10' (DRC-1; 10'; concentration 20): 79.6836% | % inhibition Apo pol 10' (DRC-1; 10'; concentration 40): 89.9069% | % inhibition Apo pol 10' (DRC-1; 10'; concentration 80): 93.1389% | % inhibition Apol 90' (DRC-1; 90'; concentration 2.5): -7.534% | % inhibition Apol 90' (DRC-1; 90'; concentration 5): 4.814% | % inhibition Apol 90' (DRC-1; 90'; concentration 10): 24.6628% | % inhibition Apol 90' (DRC-1; 90'; concentration 20): 70.7764% | % inhibition Apol 90' (DRC-1; 90'; concentration 40): 83.7672% | % inhibition Apol 90' (DRC-1; 90'; concentration 80): 87.8493% | % inhibition apPOL 180' (DRC-1; 180'; concentration 2.5): -11.2426% | % inhibition apPOL 180' (DRC-1; 180'; concentration 5): -1.027% | % inhibition apPOL 180' (DRC-1; 180'; concentration 10): 13.0398% | % inhibition apPOL 180' (DRC-1; 180'; concentration 20): 59.792% | % inhibition apPOL 180' (DRC-1; 180'; concentration 40): 76.8882% | % inhibition apPOL 180' (DRC-1; 180'; concentration 80): 82.4453% | % inhibition Apo pol 5' (DRC-2, 5', concentration 2.5 (unit not given)): 14% | % inhibition Apol 40' (DRC-2, 40', concentration 2.5 (unit not given)): 14% | % inhibition ApPOL 90' [1]: 70% | % inhibition apPOL 180' (DRC-2, 180', concentration 5 (unit not given)): 12% | % inhibition apPOL 180' (DRC-2, 180', concentration 40 (unit not given)): 70% | % inhibition Apo pol 5' (DRC-2; 5'; concentration 2.5): 14% | % inhibition Apo pol 5' (DRC-2; 5'; concentration 5): 21% | % inhibition Apo pol 5' (DRC-2; 5'; concentration 10): 38% | % inhibition Apo pol 5' (DRC-2; 5'; concentration 20): 50% | % inhibition Apo pol 5' (DRC-2; 5'; concentration 40): 52% | % inhibition Apo pol 5' (DRC-2; 5'; concentration 80): 53% | % inhibition Apol 40' (DRC-2; 40'; concentration 2.5): 14% | % inhibition Apol 40' (DRC-2; 40'; concentration 5): 25% | % inhibition Apol 40' (DRC-2; 40'; concentration 10): 47% | % inhibition Apol 40' (DRC-2; 40'; concentration 20): 69% | % inhibition Apol 40' (DRC-2; 40'; concentration 40): 71% | % inhibition Apol 40' (DRC-2; 40'; concentration 80): 74% | % inhibition ApPOL 90' (DRC-2; 90'; concentration 2.5): 12% | % inhibition ApPOL 90' (DRC-2; 90'; concentration 2.5 (unit not given)): 12% | % inhibition ApPOL 90' (DRC-2; 90'; concentration 5): 24% | % inhibition ApPOL 90' (DRC-2; 90'; concentration 10): 45% | % inhibition ApPOL 90' (DRC-2; 90'; concentration 20): 70% | % inhibition ApPOL 90' (DRC-2; 90'; concentration 40): 72% | % inhibition ApPOL 90' (DRC-2; 90'; concentration 80): 77% | % inhibition apPOL 180' (DRC-2; 180'; concentration 2.5): -0.452% | % inhibition apPOL 180' (DRC-2; 180'; concentration 5): 12% | % inhibition apPOL 180' (DRC-2; 180'; concentration 10): 35% | % inhibition apPOL 180' (DRC-2; 180'; concentration 20): 66% | % inhibition apPOL 180' (DRC-2; 180'; concentration 40): 70% | % inhibition apPOL 180' (DRC-2; 180'; concentration 80): 78% | DNA Pol [2]: 45 | DNA Pol [3]: 45

CC(=O)OCC1=C(C(=O)O)N2C(=O)[C@@H](NC(=O)Cc3cccs3)[C@H]2SC1 [Molecule 73]
IC50 (supplemental file 2, sheet IC50 nontoxic compounds; Pf-apPOL): 16.6 µM

OC(C#Cc1ccccc1)c1ccco1 (stereo not shown) [Molecule 95, OC(c1ccco1)C#Cc1ccccc1]
% inhibition Apo pol 10' (DRC-1; 10'; concentration 2.5): 31.3113% | % inhibition Apo pol 10' (DRC-1; 10'; concentration 5): 57.2957% | % inhibition Apo pol 10' (DRC-1; 10'; concentration 10): 77.3144% | % inhibition Apo pol 10' (DRC-1; 10'; concentration 20): 80.9257% | % inhibition Apo pol 10' (DRC-1; 10'; concentration 40): 79.5386% | % inhibition Apo pol 10' (DRC-1; 10'; concentration 80): 69.6909% | % inhibition Apol 90' (DRC-1; 90'; concentration 2.5): 17.4442% | % inhibition Apol 90' (DRC-1; 90'; concentration 5): 42.0165% | % inhibition Apol 90' (DRC-1; 90'; concentration 10): 68.6484% | % inhibition Apol 90' (DRC-1; 90'; concentration 20): 80.4558% | % inhibition Apol 90' (DRC-1; 90'; concentration 40): 83.9315% | % inhibition Apol 90' (DRC-1; 90'; concentration 80): 80.7801% | % inhibition apPOL 180' (DRC-1; 180'; concentration 2.5): 5.809% | % inhibition apPOL 180' (DRC-1; 180'; concentration 5): 25.3082% | % inhibition apPOL 180' (DRC-1; 180'; concentration 10): 55.1933% | % inhibition apPOL 180' (DRC-1; 180'; concentration 20): 73.4768% | % inhibition apPOL 180' (DRC-1; 180'; concentration 40): 83.0192% | % inhibition apPOL 180' (DRC-1; 180'; concentration 80): 83.0007% | % inhibition Apol 40' (DRC-2, 40', concentration 10 (unit not given)): 60% | % inhibition Apol 40' (DRC-2, 40', concentration 20 (unit not given)): 62% | % inhibition ApPOL 90' (DRC-2, 90', concentration 10 (unit not given)): 62% | % inhibition ApPOL 90' [1]: 67% | % inhibition ApPOL 90' (DRC-2, 90', concentration 40 (unit not given)): 66% | % inhibition ApPOL 90' (DRC-2, 90', concentration 80 (unit not given)): 60% | % inhibition apPOL 180' (DRC-2, 180', concentration 20 (unit not given)): 66% | % inhibition apPOL 180' (DRC-2, 180', concentration 80 (unit not given)): 67% | % inhibition Apo pol 5' (DRC-2; 5'; concentration 2.5): 14% | % inhibition Apo pol 5' (DRC-2; 5'; concentration 5): 32% | % inhibition Apo pol 5' (DRC-2; 5'; concentration 10): 39% | % inhibition Apo pol 5' (DRC-2; 5'; concentration 20): 34% | % inhibition Apo pol 5' (DRC-2; 5'; concentration 40): 22% | % inhibition Apo pol 5' (DRC-2; 5'; concentration 80): -5% | % inhibition Apol 40' (DRC-2; 40'; concentration 2.5): 15% | % inhibition Apol 40' (DRC-2; 40'; concentration 5): 44% | % inhibition Apol 40' (DRC-2; 40'; concentration 10): 60% | % inhibition Apol 40' (DRC-2; 40'; concentration 20): 62% | % inhibition Apol 40' (DRC-2; 40'; concentration 40): 59% | % inhibition Apol 40' (DRC-2; 40'; concentration 80): 48% | % inhibition ApPOL 90' (DRC-2; 90'; concentration 2.5): 12% | % inhibition ApPOL 90' (DRC-2; 90'; concentration 5): 41% | % inhibition ApPOL 90' (DRC-2; 90'; concentration 10): 62% | % inhibition ApPOL 90' (DRC-2; 90'; concentration 20): 67% | % inhibition ApPOL 90' (DRC-2; 90'; concentration 40): 66% | % inhibition ApPOL 90' (DRC-2; 90'; concentration 80): 60% | % inhibition apPOL 180' (DRC-2; 180'; concentration 2.5): 4.25% | % inhibition apPOL 180' (DRC-2; 180'; concentration 5): 30% | % inhibition apPOL 180' (DRC-2; 180'; concentration 10): 58% | % inhibition apPOL 180' (DRC-2; 180'; concentration 20): 66% | % inhibition apPOL 180' (DRC-2; 180'; concentration 40): 71% | % inhibition apPOL 180' (DRC-2; 180'; concentration 80): 67% | DNA Pol [2]: 70 | DNA Pol [3]: 70

Source: article PMC9090415, “Discovery of small molecule inhibitors of Plasmodium falciparum apicoplast DNA polymerase” (Journal of Enzyme Inhibition and Medicinal Chemistry, 2022)
